Data: patent US20230365541A1, “INHIBITOR OF ENHANCER OF ZESTE HOMOLOGUE 2, AND USE THEREOF” (HAISCO PHARMACEUTICALS PTE. LTD., priority 2020, published 2023)
Counter-ions that a name gives are not always drawn.

biological target: EZH2 (Homo sapiens (Human), UniProt Q15910); experiment: Test method for EZH2 enzyme activity; format: biochemical; conditions: H3K27(21-44) and [3H]-SAM
Description: The compounds were dissolved in DMSO, formulated into 10 mM solutions and serially diluted with DMSO to obtain 100-fold the final concentration. 200 nL of the solutions of the compounds was transferred to a 384-well plate (Perkin Elmer, Cat. No. 6007299) by using Echo550. EZH2 (BPS, Cat. No. 51004) was diluted with 1×assay buffer (50 mM Tris-HCl 9.0, 0.01% Tween-20, 1 mM DTT) to 2-fold the final concentration (EZH2: 3 nM). A mixed solution of H3K27(21-44) and [3H]-SAM (PerkinElmer, Lot. No. 2146246) (H3K27(21-44): 200 nM, [3H]-SAM: 100 nM) was formulated. The EZH2 diluted solution was taken and added to the 384-well plate at 10 μL/well (10 μL of 1×assay buffer was added in the control group). The plate was sealed and then incubated at room temperature for 15 minutes. 10 μL of the mixed solution of H3K27 (21-44) and [3H]-SAM was added to each well. The plate was sealed and then incubated at room temperature for 60 minutes. 50 μM of SAM (Sigma, Cat. No. A7007) was formulated at low temperature and added to the 384-well plate at 10 μL/well. The sample was taken at 25 μL/well, transferred to a flashplate and incubated at room temperature for at least 1 hour. The flashplate was washed 3 times with a plate washing liquid (dH2O+0.1% Tween-20) and read by using Microbeta. The inhibition rate was calculated in Excel according to: inhibition rate (%)=(maximum valuepositive control−detection signal value)/(maximum valuepositive control−minimum valuenegative control)*100, and IC50 values were fitted by using XL-Fit.

EZH2, sequence (Q15910 other isoform, or with tags, fused parts or gaps isoform Q15910-2): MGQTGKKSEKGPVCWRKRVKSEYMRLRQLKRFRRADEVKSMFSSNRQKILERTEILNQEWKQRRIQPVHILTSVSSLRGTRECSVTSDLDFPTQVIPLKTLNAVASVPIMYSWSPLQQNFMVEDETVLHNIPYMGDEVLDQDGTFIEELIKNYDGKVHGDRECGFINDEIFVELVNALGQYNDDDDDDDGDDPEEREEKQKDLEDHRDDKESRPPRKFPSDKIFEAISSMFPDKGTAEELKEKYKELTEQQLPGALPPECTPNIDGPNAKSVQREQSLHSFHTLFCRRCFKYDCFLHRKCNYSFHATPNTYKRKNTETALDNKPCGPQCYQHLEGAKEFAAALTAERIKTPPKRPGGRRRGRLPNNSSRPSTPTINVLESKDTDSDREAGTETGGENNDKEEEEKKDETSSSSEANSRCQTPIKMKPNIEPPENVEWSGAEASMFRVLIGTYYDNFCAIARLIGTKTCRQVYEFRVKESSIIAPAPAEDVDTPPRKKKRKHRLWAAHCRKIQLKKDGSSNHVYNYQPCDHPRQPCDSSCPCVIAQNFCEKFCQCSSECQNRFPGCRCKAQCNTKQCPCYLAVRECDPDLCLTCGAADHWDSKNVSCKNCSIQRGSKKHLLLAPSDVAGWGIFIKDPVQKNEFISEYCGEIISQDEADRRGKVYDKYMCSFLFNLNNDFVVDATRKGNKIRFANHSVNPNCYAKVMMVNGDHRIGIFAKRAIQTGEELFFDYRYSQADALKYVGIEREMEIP
EZH2, sequence (O75530 2-441 partner): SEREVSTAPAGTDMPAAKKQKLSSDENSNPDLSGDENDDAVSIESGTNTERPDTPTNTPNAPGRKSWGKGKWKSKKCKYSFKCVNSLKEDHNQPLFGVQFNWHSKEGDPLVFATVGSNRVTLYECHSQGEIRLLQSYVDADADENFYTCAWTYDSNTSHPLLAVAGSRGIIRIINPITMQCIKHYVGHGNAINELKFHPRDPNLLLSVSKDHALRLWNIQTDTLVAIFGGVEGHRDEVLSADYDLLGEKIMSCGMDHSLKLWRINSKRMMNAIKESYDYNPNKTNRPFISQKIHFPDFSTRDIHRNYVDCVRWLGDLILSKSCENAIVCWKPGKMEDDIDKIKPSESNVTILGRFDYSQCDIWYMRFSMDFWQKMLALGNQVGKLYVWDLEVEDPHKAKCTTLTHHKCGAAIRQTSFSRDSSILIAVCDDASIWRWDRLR
EZH2, sequence (Q15022 2-739 partner): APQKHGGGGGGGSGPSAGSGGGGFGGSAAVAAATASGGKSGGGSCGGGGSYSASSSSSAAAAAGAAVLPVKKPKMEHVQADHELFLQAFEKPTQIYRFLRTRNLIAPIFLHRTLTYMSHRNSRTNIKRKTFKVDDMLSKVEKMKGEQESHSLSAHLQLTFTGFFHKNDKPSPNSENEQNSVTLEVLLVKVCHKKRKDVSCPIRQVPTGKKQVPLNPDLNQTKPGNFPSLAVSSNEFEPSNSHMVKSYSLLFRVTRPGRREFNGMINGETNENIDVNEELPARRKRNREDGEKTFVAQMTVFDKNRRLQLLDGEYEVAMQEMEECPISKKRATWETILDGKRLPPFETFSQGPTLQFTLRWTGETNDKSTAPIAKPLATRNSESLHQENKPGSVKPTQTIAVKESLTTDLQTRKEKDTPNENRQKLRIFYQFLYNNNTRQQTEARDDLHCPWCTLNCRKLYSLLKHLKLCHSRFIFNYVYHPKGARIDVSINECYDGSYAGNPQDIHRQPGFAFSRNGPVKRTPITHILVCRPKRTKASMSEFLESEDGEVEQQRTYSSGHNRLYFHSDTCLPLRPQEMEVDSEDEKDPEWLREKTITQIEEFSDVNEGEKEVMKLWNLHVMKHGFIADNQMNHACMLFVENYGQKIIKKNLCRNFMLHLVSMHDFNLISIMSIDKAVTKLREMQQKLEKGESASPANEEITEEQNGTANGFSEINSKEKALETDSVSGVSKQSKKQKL
EZH2, sequence (Q09028 2-425 partner): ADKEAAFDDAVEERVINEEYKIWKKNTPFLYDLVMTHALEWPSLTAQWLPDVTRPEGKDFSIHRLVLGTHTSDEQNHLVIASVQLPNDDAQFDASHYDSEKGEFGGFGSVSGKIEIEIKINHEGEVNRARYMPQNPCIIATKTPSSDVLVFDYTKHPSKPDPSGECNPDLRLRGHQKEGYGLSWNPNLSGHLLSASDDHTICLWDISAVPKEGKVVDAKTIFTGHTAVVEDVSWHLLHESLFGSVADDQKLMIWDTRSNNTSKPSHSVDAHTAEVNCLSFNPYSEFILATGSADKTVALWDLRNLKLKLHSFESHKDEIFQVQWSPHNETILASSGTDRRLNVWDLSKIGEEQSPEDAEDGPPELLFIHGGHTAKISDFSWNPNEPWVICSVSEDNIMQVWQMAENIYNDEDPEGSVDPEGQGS
EZH2, sequence (Q6ZN18 whole entry partner): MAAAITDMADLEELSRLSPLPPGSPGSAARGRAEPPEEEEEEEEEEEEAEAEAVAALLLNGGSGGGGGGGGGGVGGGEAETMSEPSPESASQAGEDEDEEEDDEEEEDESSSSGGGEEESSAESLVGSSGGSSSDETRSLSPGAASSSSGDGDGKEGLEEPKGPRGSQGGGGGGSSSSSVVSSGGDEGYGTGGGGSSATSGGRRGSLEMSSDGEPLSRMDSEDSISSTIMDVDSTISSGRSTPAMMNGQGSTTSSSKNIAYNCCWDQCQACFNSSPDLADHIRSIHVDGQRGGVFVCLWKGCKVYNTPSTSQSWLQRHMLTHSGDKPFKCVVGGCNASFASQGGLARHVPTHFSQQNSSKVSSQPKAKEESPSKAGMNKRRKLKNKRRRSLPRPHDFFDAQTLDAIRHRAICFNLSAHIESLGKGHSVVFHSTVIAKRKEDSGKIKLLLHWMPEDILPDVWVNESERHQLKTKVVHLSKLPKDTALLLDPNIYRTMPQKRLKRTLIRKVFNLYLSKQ

`CSc1cc(C)[nH]c(=O)c1CNC(=O)c1cc(Cl)c2c(c1C)OC(C)(C1CCN(CC3(F)CC3)CC1)O2` (stereo not shown) [Compound 32, 7-chloro-2-(1-((1-fluorocyclopropyl)methyl)piperidin-4-yl)-2,4-dimethyl-N-((6-methyl-4-(methylthio)-2-oxo-1,2-dihydropyridin-3-yl)methyl)benzo[d][1,3]dioxole-5-carboxamide] and `CSc1cc(C)[nH]c(=O)c1CNC(=O)c1cc(Cl)c2c(c1C)OC(C)(C1CCN(CC3CC(F)(F)C3)CC1)O2` (single isomer, unassigned) [Compound 10, isomer 1, 7-chloro-2-(1-((3,3-difluorocyclobutyl)methyl)piperidin-4-yl)-2,4-dimethyl-N-((6-methyl-4-(methylthio)-2-oxo-1,2-dihydropyridin-3-yl)methyl)benzo[d][1,3]dioxole-5-carboxamide] are within 1.5-fold of each other in IC50: 0.58 nM for the first, 0.56 nM for the second.

`CSc1cc(C)[nH]c(=O)c1CNC(=O)c1cc(Cl)c2c(c1C)OC(C)(C1CCN(C(=O)C3CC(F)(F)C3)CC1)O2` (single isomer, unassigned; isomer 1) [Compound 11, isomer 1, 7-chloro-2-(1-(3,3-difluorocyclobutane-1-carbonyl)piperidin-4-yl)-2,4-dimethyl-N-((6-methyl-4-(methylthio)-2-oxo-1,2-dihydropyridin-3-yl)methyl)benzo[d][1,3]dioxole-5-carboxamide] and `CSc1cc(C)[nH]c(=O)c1CNC(=O)c1cc(Cl)c2c(c1C)OC(C)(C1CCN(C(=O)C3CC3)CC1)O2` (single isomer, unassigned) [Compound 7, isomer 1, 7-chloro-2-(1-(cyclopropanecarbonyl)piperidin-4-yl)-2,4-dimethyl-N-((6-methyl-4-(methylthio)-2-oxo-1,2-dihydropyridin-3-yl)methyl)benzo[d][1,3]dioxole-5-carboxamide] are within 1.5-fold of each other in IC50: 0.73 nM for the first, 0.52 nM for the second.

`CSc1cc(C)[nH]c(=O)c1CNC(=O)c1cc(Cl)c2c(c1C)OC(C)([C@H]1CC[C@@H](NCC3(C)COC3)CC1)O2` (single isomer, unassigned) [Compound 3, isomer 2, 7-chloro-2,4-dimethyl-N-((6-methyl-4-(methylthio)-2-oxo-1,2-dihydropyridin-3-yl)methyl)-2-(4-(((3-methyloxetan-3-yl)methyl)amino)cyclohexyl)benzo[d][1,3]dioxole-5-carboxamide trifluoroacetate] and `CSc1cc(C)[nH]c(=O)c1CNC(=O)c1cc(Cl)c2c(c1C)OC(C)(C1CCC(NC3COC3)CC1)O2` (single isomer, unassigned) [Compound 61, isomer 1, 7-chloro-2,4-dimethyl-N-((6-methyl-4-(methylthio)-2-oxo-1,2-dihydropyridin-3-yl)methyl)-2-(4-(oxetan-3-ylamino)cyclohexyl)benzo[d][1,3]dioxole-5-carboxamide] are within 1.5-fold of each other in IC50: 0.51 nM for the first, 0.52 nM for the second.

`CSc1cc(C)[nH]c(=O)c1CNC(=O)c1cc(Cl)c2c(c1C)OC(C)(C1CCC(N(C)C3CC(F)(F)C3)CC1)O2` (stereo not shown) [Compound 35, 7-chloro-2-(4-((3,3-difluorocyclobutyl)(methyl)amino)cyclohexyl)-2,4-dimethyl-N-((6-methyl-4-(methylthio)-2-oxo-1,2-dihydropyridin-3-yl)methyl)benzo[d][1,3]dioxole-5-carboxamide] and `CSc1cc(C)[nH]c(=O)c1CNC(=O)c1cc(Cl)c2c(c1C)OC(C)(C1CCC(N3CC(N(C)C)C3)CC1)O2` (single isomer, unassigned) [Compound 1, isomer 2, 7-chloro-2-(4-(3-(dimethylamino)azetidin-1-yl)cyclohexyl)-2,4-dimethyl-N-((6-methyl-4-(methylthio)-2-oxo-1,2-dihydropyridin-3-yl)methyl)benzo[d][1,3]dioxole-5-carboxamide] are within 1.5-fold of each other in IC50: 0.59 nM for the first, 0.6 nM for the second.

First: CSc1cc(C)[nH]c(=O)c1CNC(=O)c1cc(Cl)c2c(c1C)OC(C)([C@H]1CC[C@@H](N3CC[Si](C)(C)CC3)CC1)O2 (single isomer, unassigned) [Compound 49, isomer 1, 7-chloro-2-(4-(4,4-dimethyl-1,4-azasilinan-1-yl)cyclohexyl)-2,4-dimethyl-N-((6-methyl-4-(methylthio)-2-oxo-1,2-dihydropyridin-3-yl)methyl)benzo[d][1,3]dioxole-5-carboxamide]
Second: CSc1cc(C)[nH]c(=O)c1CNC(=O)c1cc(Cl)c2c(c1C)OC(C)(C1CCC(N3CC(C#N)C3)CC1)O2 (single isomer, unassigned) [Compound 2, isomer 1, 7-chloro-2-(4-(3-cyanoazetidin-1-yl)cyclohexyl)-2,4-dimethyl-N-((6-methyl-4-(methylthio)-2-oxo-1,2-dihydropyridin-3-yl)methyl)benzo[d][1,3]dioxole-5-carboxamide]
The IC50 of the first is 1.8-fold lower: 0.51 nM for the first, 0.92 nM for the second. The first is the more potent here.

First: CO[C@H]1C[C@H](NC2CCC(C3(C)Oc4c(Cl)cc(C(=O)NCc5c(SC)cc(C)[nH]c5=O)c(C)c4O3)CC2)C1 (single isomer, unassigned) [Compound 9, isomer 2, 7-chloro-2-(4-((trans-3-methoxycyclobutyl)amino)cyclohexyl)-2,4-dimethyl-N-((6-methyl-4-(methylthio)-2-oxo-1,2-dihydropyridin-3-yl)methyl)benzo[d][1,3]dioxole-5-carboxamide]
Second: CSc1cc(C)[nH]c(=O)c1CNC(=O)c1cc(Cl)c2c(c1C)OC(C)(C1CCC(N[C@H]3C[C@H](O)C3)CC1)O2 (single isomer, unassigned) [Compound 45, isomer 1, 7-chloro-2-(4-((trans-3-hydroxycyclobutyl)amino)cyclohexyl)-2,4-dimethyl-N-((6-methyl-4-(methylthio)-2-oxo-1,2-dihydropyridin-3-yl)methyl)benzo[d][1,3]dioxole-5-carboxamide]
The IC50 of the first is 1.7-fold higher: 0.48 nM for the first, 0.28 nM for the second.

`CSc1cc(C)[nH]c(=O)c1CNC(=O)c1cc(Cl)c2c(c1C)OC(C)(C1CCC(c3cnn(C)c3)CC1)O2` (single isomer, unassigned) [Compound 8, isomer 1, 7-chloro-2,4-dimethyl-2-(4-(1-methyl-1H-pyrazol-4-yl)cyclohexyl)-N-((6-methyl-4-(methylthio)-2-oxo-1,2-dihydropyridin-3-yl)methyl)benzo[d][1,3]dioxole-5-carboxamide] and `CSc1cc(C)[nH]c(=O)c1CNC(=O)c1cc(Cl)c2c(c1C)OC(C)(C1CCC(N3CC(C#N)C3)CC1)O2` (single isomer, unassigned) [Compound 2, isomer 2, 7-chloro-2-(4-(3-cyanoazetidin-1-yl)cyclohexyl)-2,4-dimethyl-N-((6-methyl-4-(methylthio)-2-oxo-1,2-dihydropyridin-3-yl)methyl)benzo[d][1,3]dioxole-5-carboxamide] are within 1.5-fold of each other in IC50: 0.51 nM for the first, 0.72 nM for the second.

Going from `[2H]C([2H])(NC(=O)c1cc(Cl)c2c(c1C)OC(C)([C@H]1CC[C@@H](CN3CCOCC3)CC1)O2)c1c(SC)cc(C)[nH]c1=O` (single isomer, unassigned) [Compound 57, isomer 2, 7-chloro-2,4-dimethyl-N-((6-methyl-4-(methylthio)-2-oxo-1,2-dihydropyridin-3-yl)methyl-d2)-2-(4-(morpholinomethyl)cyclohexyl)benzo[d][1,3]dioxole-5-carboxamide] to `CSc1cc(C)[nH]c(=O)c1CNC(=O)c1cc(Cl)c2c(c1C)OC(C)(C1CCC(NC3COC3)CC1)O2` (single isomer, unassigned) [Compound 61, isomer 2, 7-chloro-2,4-dimethyl-N-((6-methyl-4-(methylthio)-2-oxo-1,2-dihydropyridin-3-yl)methyl)-2-(4-(oxetan-3-ylamino)cyclohexyl)benzo[d][1,3]dioxole-5-carboxamide], the IC50 falls from 0.49 nM to 0.25 nM (2-fold).

Compared with `CSc1cc(C)[nH]c(=O)c1CNC(=O)c1cc(Cl)c2c(c1C)OC(C)(C1CCN(C(=O)C3CC(F)(F)C3)CC1)O2` (single isomer, unassigned) [Compound 5, isomer 1, 7-chloro-2-(1-(3,3-difluorocyclobutane-1-carbonyl)piperidin-4-yl)-2,4-dimethyl-N-((6-methyl-4-(methylthio)-2-oxo-1,2-dihydropyridin-3-yl)methyl)benzo[d][1,3]dioxole-5-carboxamide], `CSc1cc(C)[nH]c(=O)c1CNC(=O)c1cc(Cl)c2c(c1C)OC(C)([C@H]1CC[C@@H](N3CC4CN(C)CC4C3)CC1)O2` (single isomer, unassigned) [Compound 42, isomer 2, 7-chloro-2,4-dimethyl-N-((6-methyl-4-(methylthio)-2-oxo-1,2-dihydropyridin-3-yl)methyl)-2-(4-(5-methylhexahydropyrrolo[3,4-c]pyrrol-2(1H)-yl)cyclohexyl)benzo[d][1,3]dioxole-5-carboxamide] is 2.5-fold lower in IC50: 0.58 nM for the first, 0.23 nM for the second. The second is the more potent here.

For `[2H]C([2H])(NC(=O)c1cc(Cl)c2c(c1C)OC(C)([C@H]1CC[C@@H](CN3CCOCC3)CC1)O2)c1c(SC)cc(C)[nH]c1=O` (single isomer, unassigned) [Compound 57, isomer 1, 7-chloro-2,4-dimethyl-N-((6-methyl-4-(methylthio)-2-oxo-1,2-dihydropyridin-3-yl)methyl-d2)-2-(4-(morpholinomethyl)cyclohexyl)benzo[d][1,3]dioxole-5-carboxamide], the IC50 was 0.46 nM.
